Laboratory results: patent US8076366B2, “Forms of bendamustine free base” (Cephalon, Inc., priority 2009, dated 2011)

Assay: Variable temperature X-ray powder diffraction (VT-XRPD) of Form 3: solid-state thermal stability
Assay type: physicochemical
Procedure: Variable temperature studies were performed with an Anton Paar TTK450 temperature chamber under computer control through an Anton Paar TCU100 temperature control unit. Typically, the measurements were done with a nitrogen flow through the camera. Two measurement schemes were used, restricted and continuous. In the restricted mode, measurements were made only after the TK450 chamber reached the requested temperature. In the continuous mode, the sample was heated at 10° C./minute and fast scans were measured as the temperature changed. After the pre-selected temperature was reached, the sample was cooled at 35° C./minute. To monitor for changes during the cooling, fast scans were again measured. At 25° C., a slow scan was measured. The temperatures chosen were based on DSC results. For the diffractometer set-up a 10 mm beam mask, 0.04 radian Soller slits and fixed (¼°) divergence and anti-scatter (⅛°) slits were inserted on the incident beam side. A fixed 0.10 mm receiving slit, 0.04 radian Soller slits and a 0.02 mm Nickel filter were inserted on the diffracted beam side. […] With the nitrogen gas supply turned off, the camera returned to ambient conditions. The humidity in the ambient state varies with the humidity in the laboratory, typically 30 to 40%, and with the temperature in the camera. As the temperature is raised, the relative humidity will drop. […]

Cn1c(CCCC(=O)O)nc2cc(N(CCCl)CCCl)ccc21 [Form 3, 4-{5-[Bis(2-chloroethyl)amino]-1-methyl-2-benzimidazolyl}butyric acid]
temperature after which the sample converts to amorphous material: > 133 °C
solid-solid transformations on heating (temperature range of 25° C. to 50° C.): No significant, solid-solid transformations
